± gives the expanded uncertainty stated by the source.
Test: activity coefficient (dimensionless); of the first substance listed, at infinite dilution; xn = mol fraction of the nth substance listed
Settings: 101 kPa, Liquid, Chromatography, x1 = 0

| Structure (SMILES) | activity coefficient (323 K) | activity coefficient (333 K) | activity coefficient (343.1 K) | activity coefficient (322.9 K) | activity coefficient (322.6 K) | activity coefficient (332.5 K) | activity coefficient (342.8 K) |
| --- | --- | --- | --- | --- | --- | --- | --- |
| C#CCCCCC [1-heptyne] + CCCCCCCC[N+]1(C)CCCC1.O=S(=O)([N-]S(=O)(=O)C(F)(F)F)C(F)(F)F | 1.94 ± 0.2 | 1.89 ± 0.2 | 1.9 ± 0.2 |  |  |  |  |
| C1CCCCC1 [cyclohexane] + CCCCCC[N+]1(C)CCCC1.O=S(=O)([N-]S(=O)(=O)C(F)(F)F)C(F)(F)F |  | 4.64 ± 0.49 | 4.67 ± 0.49 | 5.16 ± 0.54 |  |  |  |
| CC1CCCCC1 [methylcyclohexane] + CCCCCC[N+]1(C)CCCC1.O=S(=O)([N-]S(=O)(=O)C(F)(F)F)C(F)(F)F |  | 6.07 ± 0.64 | 6.03 ± 0.63 | 6.57 ± 0.69 |  |  |  |
| CCOCC [diethyl ether] + CCCCCC[N+]1(C)CCCC1.O=S(=O)([N-]S(=O)(=O)C(F)(F)F)C(F)(F)F |  | 1.76 ± 0.18 | 1.76 ± 0.18 | 1.56 ± 0.16 |  |  |  |
| CCCCCCCCC [nonane] + CCCCCCCC[N+]1(C)CCCC1.O=S(=O)([N-]S(=O)(=O)C(F)(F)F)C(F)(F)F | 11.3 ± 0.67 | 10.7 ± 0.64 | 9.14 ± 0.55 |  |  |  |  |
| CCC(C)=O [butanone] + CCCCCC[N+]1(C)CCCC1.O=S(=O)([N-]S(=O)(=O)C(F)(F)F)C(F)(F)F |  | 0.42 ± 0.05 | 0.39 ± 0.05 | 0.42 ± 0.05 |  |  |  |
| c1ccccc1 [benzene] + CCCCCCCC[N+]1(C)CCCC1.O=S(=O)([N-]S(=O)(=O)C(F)(F)F)C(F)(F)F | 0.6 ± 0.06 | 0.62 ± 0.07 | 0.61 ± 0.07 |  |  |  |  |
| CCCC(C)=O [pentan-2-one] + CCCCCCCC[N+]1(C)CCCC1.O=S(=O)([N-]S(=O)(=O)C(F)(F)F)C(F)(F)F | 0.49 ± 0.05 | 0.51 ± 0.06 | 0.48 ± 0.05 |  |  |  |  |
| C#CCCCC [1-hexyne] + CCCCCCCCCC[N+]1(C)CCCC1.O=S(=O)([N-]S(=O)(=O)C(F)(F)F)C(F)(F)F |  |  |  |  | 1.5 ± 0.16 | 1.48 ± 0.15 | 1.47 ± 0.15 |
| CCC(C)=O [butanone] + CCCCCCCC[N+]1(C)CCCC1.O=S(=O)([N-]S(=O)(=O)C(F)(F)F)C(F)(F)F | 0.36 ± 0.04 | 0.34 ± 0.04 | 0.31 ± 0.04 |  |  |  |  |
| C1COCCO1 [1,4-dioxane] + CCCCCCCCCC[N+]1(C)CCCC1.O=S(=O)([N-]S(=O)(=O)C(F)(F)F)C(F)(F)F |  |  |  |  | 0.38 ± 0.05 | 0.35 ± 0.04 | 0.38 ± 0.05 |
| CCCCCCC [heptane] + CCCCCC[N+]1(C)CCCC1.O=S(=O)([N-]S(=O)(=O)C(F)(F)F)C(F)(F)F |  | 9.43 ± 0.99 | 9.58 ± 1 | 10.6 ± 1.1 |  |  |  |
| c1ccncc1 [pyridine] + CCCCCCCC[N+]1(C)CCCC1.O=S(=O)([N-]S(=O)(=O)C(F)(F)F)C(F)(F)F | 0.42 ± 0.05 | 0.39 ± 0.05 | 0.41 ± 0.05 |  |  |  |  |
| CCC(=O)CC [pentan-3-one] + CCCCCCCC[N+]1(C)CCCC1.O=S(=O)([N-]S(=O)(=O)C(F)(F)F)C(F)(F)F | 0.45 ± 0.05 | 0.47 ± 0.05 | 0.44 ± 0.05 |  |  |  |  |
| C1CCCCC1 [cyclohexane] + CCCCCCCCCC[N+]1(C)CCCC1.O=S(=O)([N-]S(=O)(=O)C(F)(F)F)C(F)(F)F |  |  |  |  | 2.81 ± 0.3 | 2.71 ± 0.28 | 2.62 ± 0.28 |
| Cc1ccccc1C [1,2-dimethylbenzene] + CCCCCCCC[N+]1(C)CCCC1.O=S(=O)([N-]S(=O)(=O)C(F)(F)F)C(F)(F)F | 0.92 ± 0.09 | 0.87 ± 0.09 | 0.97 ± 0.1 |  |  |  |  |
| Cc1ccccc1 [toluene] + CCCCCCCC[N+]1(C)CCCC1.O=S(=O)([N-]S(=O)(=O)C(F)(F)F)C(F)(F)F | 0.76 ± 0.08 | 0.78 ± 0.08 | 0.74 ± 0.08 |  |  |  |  |
| c1ccsc1 [thiophene] + CCCCCCCC[N+]1(C)CCCC1.O=S(=O)([N-]S(=O)(=O)C(F)(F)F)C(F)(F)F | 0.57 ± 0.06 | 0.55 ± 0.06 | 0.53 ± 0.06 |  |  |  |  |
| CCCCO [butan-1-ol] + CCCCCCCCCC[N+]1(C)CCCC1.O=S(=O)([N-]S(=O)(=O)C(F)(F)F)C(F)(F)F |  |  |  |  | 2.2 ± 0.23 | 1.85 ± 0.19 | 1.64 ± 0.17 |
| CC1CCCC1 [methylcyclopentane] + CCCCCC[N+]1(C)CCCC1.O=S(=O)([N-]S(=O)(=O)C(F)(F)F)C(F)(F)F |  | 4.52 ± 0.47 | 4.76 ± 0.5 | 4.9 ± 0.51 |  |  |  |
| CCCCCC [hexane] + CCCCCCCCCC[N+]1(C)CCCC1.O=S(=O)([N-]S(=O)(=O)C(F)(F)F)C(F)(F)F |  |  |  |  | 3.97 ± 0.42 | 3.78 ± 0.4 | 3.68 ± 0.39 |
| CCC[N+](=O)[O-] [1-nitropropane] + CCCCCCCCCC[N+]1(C)CCCC1.O=S(=O)([N-]S(=O)(=O)C(F)(F)F)C(F)(F)F |  |  |  |  | 0.62 ± 0.07 | 0.61 ± 0.07 | 0.6 ± 0.06 |
| CCCCCCCCC [nonane] + CCCCCCCCCC[N+]1(C)CCCC1.O=S(=O)([N-]S(=O)(=O)C(F)(F)F)C(F)(F)F |  |  |  |  | 8.32 ± 0.87 | 8.01 ± 0.84 | 7.65 ± 0.8 |
| Cc1ccc(C)cc1 [1,4-dimethylbenzene] + CCCCCC[N+]1(C)CCCC1.O=S(=O)([N-]S(=O)(=O)C(F)(F)F)C(F)(F)F |  | 1.4 ± 0.14 | 1.42 ± 0.15 | 1.35 ± 0.14 |  |  |  |

Reference: the NIST ThermoML archive (doi:10.1021/je300692s)
